Laboratory results reported in US12263155B2, “Combinations of monoamine oxidase inhibitors and serotonin receptor agonists and their therapeutic use” (Remedi, Inc., priority 2022, dated 2025).

Tests used:
[1] = target: T1, MAO-A from human brain striatum (Homo sapiens, UniProt P21397); experiment: Inhibitory kinetics of human brain striatum MAO-A; assay type: biochemical; details: for Vmax: [14C]-5-HT substrate
T1 construct: homogenates of a post-mortem sample of the human brain striatum, served as the source of MAO-A enzymatic activity; from tissue; host or cells: human brain striatum, post-mortem (P2 mitochondrial-enriched fraction)
T1 sequence (P21397 1-527): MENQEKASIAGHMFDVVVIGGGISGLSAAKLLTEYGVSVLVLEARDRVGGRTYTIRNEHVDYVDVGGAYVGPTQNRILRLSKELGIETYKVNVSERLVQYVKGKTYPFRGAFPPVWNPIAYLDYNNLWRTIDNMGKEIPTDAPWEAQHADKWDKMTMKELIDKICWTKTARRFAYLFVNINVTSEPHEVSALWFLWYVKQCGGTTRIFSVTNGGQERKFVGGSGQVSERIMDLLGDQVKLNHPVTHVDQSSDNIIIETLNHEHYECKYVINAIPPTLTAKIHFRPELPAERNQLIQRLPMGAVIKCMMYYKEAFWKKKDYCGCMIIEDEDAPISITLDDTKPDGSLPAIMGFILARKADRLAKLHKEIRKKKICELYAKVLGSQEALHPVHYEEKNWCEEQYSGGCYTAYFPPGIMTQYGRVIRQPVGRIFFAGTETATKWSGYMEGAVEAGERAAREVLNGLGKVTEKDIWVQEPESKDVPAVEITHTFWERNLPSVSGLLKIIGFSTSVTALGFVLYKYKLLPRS
Method: Methods: The soluble extract of the mitochondrial enriched fraction (P2 pellet), which was prepared from homogenates of a post-mortem sample of the human brain striatum, served as the source of MAO-A enzymatic activity for this assay. After preparation, the P2 fraction was stored frozen until it was thawed for use on the day of assay. […] The MAO-A assay specificity was enhanced by inclusion of 0.1 μM deprenyl to prevent substrate oxidation by MAO-B. The CX157 competition for MAO-A activity was measured using either 1.0 nM or 5.0 nM CX157 against the 2 log unit concentration range of [^14C]-5-HT. The reference standard, RO 41-1049, was tested at 10 μM. Deprenyl (0.1 μM) was included in all MAO-A assays to prevent any potential for MAO-B mediated oxidation of the [^14C]-5-HT substrate. […] The MAO-A assays were performed using CX157 at concentrations of 0 nM (as a positive control), 1 nM and 5 nM. The Km and Vmax values were calculated from Lineweaver-Burke plots.

Oxidase MAO-B Peripheral = target: T2, Oxidase MAO-B Peripheral (Rattus norvegicus, UniProt P19643); experiment: NovaScreen ligand-binding screen, MAO-B; details: 10.0 nM and 100 nM
T2 construct: purchased NovaScreen
T2 sequence (P19643 1-520): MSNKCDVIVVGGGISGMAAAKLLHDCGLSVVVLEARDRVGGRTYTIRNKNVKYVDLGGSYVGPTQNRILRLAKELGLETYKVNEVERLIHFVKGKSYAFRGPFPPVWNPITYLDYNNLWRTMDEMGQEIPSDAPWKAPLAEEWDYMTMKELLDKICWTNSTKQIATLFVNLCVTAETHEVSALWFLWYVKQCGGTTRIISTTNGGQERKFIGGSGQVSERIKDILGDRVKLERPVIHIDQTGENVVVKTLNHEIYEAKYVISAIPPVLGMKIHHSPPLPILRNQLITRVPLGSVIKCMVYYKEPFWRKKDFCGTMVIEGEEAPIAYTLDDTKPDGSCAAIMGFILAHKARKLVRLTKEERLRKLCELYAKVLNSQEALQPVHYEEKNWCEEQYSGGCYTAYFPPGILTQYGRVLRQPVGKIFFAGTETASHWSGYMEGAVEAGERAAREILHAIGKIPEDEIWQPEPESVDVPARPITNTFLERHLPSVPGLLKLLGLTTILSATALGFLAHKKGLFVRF
Method: Methods: Investigational drug candidates CX157 were analyzed in NovaScreen's bank of ligand-binding reactions to test for specificity. CX157 was screened at concentrations of both 10.0 nM and 100 nM as potential competitors in binding reactions involving nine classes containing 69 binding sites. The following binding reactions are tested: Adenosine Non-selective, Adrenergic Alpha 1 Non-selective, Adrenergic Alpha 2 Non-selective, Adrenergic Beta Non-selective, Dopamine Transporter, Dopamine Non-selective, GABA A Agonist Site, GABA A BDZ alpha 1 site, GABA B, Glutamate AMPA Site (Ionotropic), Glutamate Kainate Site (Ionotropic), Glutamate NMDA Agonist Site (Ionotropic), Glutamate NMDA Glycine (Stry-insens Site) (Ionotrophic), Glycine Strychnine-sensitive, Histamine H1, Histamine H2, Histamine H3, Melatonin Non-selective, Muscarinic M1 (hr), Muscarinic M2 (hr), Muscarinic Non-selective Central, Muscarinic Non-selective Peripheral, Nicotinic (α-BnTx insensitive) Neuronal, Norepinephrine Transporter, Opioid Non-selective, Orphanin (hr), Serotonin Transporter, Serotonin Non-selective, Sigma Non-selective, Estrogen, Testosterone (cytosolic), Calcium Channel Type L (Dihydropyridine Site), Calcium Channel Type N, Potassium Channel ATP-Sensitive, Potassium Channel Ca2+ Act. VI, Potassium Channel I[Kr]

Question: For `O=S1(=O)c2ccc(F)cc2Oc2cc(OCC(F)(F)F)ccc21` [CX157, 3-fluoro-7(2,2,2-trifluorethoxy)phenoxathiine-10,10-dioxide], which “increase of Km of the enzyme for [14C]-5-HT” value ([1]; 5.0 nM CX157) is on record?
Answer: Its value is 34.6%.

Question: What about the Vmax ([1]; 1 nM CX157) of the same molecule?
Answer: The Vmax was 50777.

Question: And the Vmax ([1]; 5 nM CX157)?
Answer: Its Vmax is 59161.

Question: What about the “mode of MAO-A inhibition” value ([1]; human brain striatum) of the same molecule?
Answer: The value was “competitive inhibitor”.

Question: And the Ki ([1]; human brain striatum homogenate, from plot of Km values)?
Answer: The Ki was 10 nM.

Question: And the “binding to MAO-B” value (Oxidase MAO-B Peripheral)?
Answer: The value was “did not bind to MAO-B”.
